This passage reports TGI and GI50 results from PubChem BioAssay (NCI).

Experiment in all cases: NCI-60 cell line screen, 48 h
Assay [1] relates to HCT-116 colon.
Assay [2] concerns KM12 colon.
Assay [3] has as its system OVCAR-3 ovarian.
The test system of assay [4] is K-562 leukemia.
The test system of assay [5] is NCI-H522 lung.
Assay [6] deals with HOP-62 NSCLC.
Assay [7] deals with ACHN renal.
Assay [8] relates to NCI-H460 lung.
In assay [9] the test system is A498 renal.
In assay [10] the test system is MALME-3M melanoma.

Several values for one entry are separate records, joined by “and”; a condition that tells them apart may be missing. Identical values can stand only once.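 Values below derive from 48-hour exposures of cells grown in 96-well plates, with endpoints linearly interpolated between the two concentrations bracketing the appropriate inhibition level. GI50 = concentration required for 50% inhibition of growth. Definition used: TGI = concentration required for complete inhibition of growth.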

With `Cc1c2cccc-2ccc2c3ccccc3n(C(=O)c3ccc(Cl)cc3)c12`, the TGI in [1], in [2], in assay [3], in assay [4], in assay [5] and in assay [6] was over 100 µM throughout. Besides, the TGI in assay [7], in assay [8], in [9] and in assay [10] was over 100 µM each time.

On to `COC(=O)Nc1nc2ccc(NC(=O)c3ccc(I)cc3)cc2[nH]1`, for which the TGI in assay [1], in [2], in assay [3], in [4], in assay [5] and in [6] was over 100 µM each time. The TGI in assay [7], in assay [8], in assay [9] and in assay [10] was over 100 µM in each case.

For `NC(N)=NC1C(O)C(O)C(O)C(N=C(N)N)C1O` (centres undefined), the TGI in assay [1], in assay [2], in assay [3], in assay [4], in assay [5] and in assay [6] was over 100 µM in each case. Besides, the TGI in assay [7], in [8], in assay [9] and in assay [10] was over 100 µM throughout.

Regarding `COc1ccccc1NC(=O)CC(=O)NN`, the TGI in assay [1], in assay [2], in [3], in assay [4], in assay [5] and in assay [6] was over 100 µM in each case. The TGI in assay [7], in assay [8], in assay [9] and in [10] was over 100 µM in each case.

For the compound `C=C1C(C)C2C(Cc3ccccc3)NC(=O)C23OC(=O)/C=C\CC(=O)CCC(C)C/C=C/C3C1O` (centres undefined), the TGI was 7.35 µM in [1]; 12.7 µM in assay [2]; 7.9 µM in assay [3]; 5.79 µM in [4]; 0.931 µM and 2.52 µM in assay [5]; 7.33 µM in assay [6]. The figures for the TGI in assay [8], in assay [9] and in assay [10] were 21.7 µM, 5.32 µM and 5.18 µM, respectively. Also, the GI50 in [3] was 0.384 µM; in assay [5], 0.366 µM.

On to `CCOc1cc2c(cc1O)C(O)C[C@@H]1[C@@H]2CC[C@]2(C)[C@@H](O)CC[C@@H]12` (some centres undefined), for which the TGI in assay [1] is over 100 µM; in [2], over 100 µM; in assay [3], over 100 µM; in assay [4], over 36.4 µM; in [5], 0.95 µM; in assay [6], over 100 µM. The TGI in assay [7] was over 100 µM; in [9], 0.497 µM; in [10] it was over 100 µM.

Consider `CCCCN(C)/N=N/c1nc[nH]c1C(N)=O`, for which the TGI in [1], in [2], in assay [3], in [4], in assay [5] and in [8] was over 100 µM each time. Further, the TGI in [9] and in assay [10] was over 100 µM throughout.

On to `CC(C)(C)C1=C(Br)C(O)(C(C)(C)C)OP1(=O)c1ccccc1` (centres undefined), for which the TGI in [2], in assay [3], in assay [4], in assay [5], in [6] and in assay [7] was over 100 µM each time. Also, the TGI in [8], in assay [9] and in assay [10] was over 100 µM each time.

For the compound `O=C(N=Nc1ccccc1Cl)NNc1ccccc1Cl`, the TGI in [1] was over 100 µM; in [3], 95.3 µM; in [4] it was 73.1 µM; in [5] it was 52.7 µM; in assay [6], over 100 µM; in assay [7], 92.6 µM. Further, the TGI in assay [8], in [9] and in [10] was over 100 µM each time.

With `Nc1c(S(=O)(=O)O)cc(S(=O)(=O)O)c2ccc(N=Nc3ccc(/C=C/c4ccc(N=Nc5ccc6c(S(=O)(=O)O)cc(S(=O)(=O)O)c(N)c6c5O)cc4S(=O)(=O)O)c(S(=O)(=O)O)c3)c(O)c12`, the TGI in [1], in assay [2], in [3], in [4], in assay [5] and in assay [6] was over 100 µM each time. Further, the TGI in [8], in [9] and in assay [10] was over 100 µM in each case.

For the compound `N/C(=N\N=C\c1ncccc1O)NO`, the TGI in assay [1] was over 100 µM; in assay [2], over 100 µM; in assay [3] it was over 100 µM; in assay [4] it was over 60.7 µM; in assay [5], 87.9 µM; in assay [6], over 93 µM. Further, the TGI in assay [8], in assay [9] and in assay [10] was over 100 µM each time.
